Measured values published in ChEMBL document CHEMBL1137985, “Synthesis and enzymatic evaluation of xanthine oxidase-activated prodrugs based on inhibitors of thymidine phosphorylase” (Bioorg Med Chem Lett, 2004).
Where a name gives a salt, the structure may show the parent alone.

Assays:
Thymidine phosphorylase [1] = target: T1, Thymidine phosphorylase (Escherichia coli K-12, UniProt P07650); test: Inhibition of Thymidine phosphorylase from Escherichia coli; no inhibition at 148 uM
Thymidine phosphorylase [2] = target: T1, Thymidine phosphorylase; test: Inhibition of Thymidine phosphorylase from Escherichia coli; no inhibition at 207 uM
Thymidine phosphorylase [3] = target: T1, Thymidine phosphorylase
Thymidine phosphorylase [4] = target: T1, Thymidine phosphorylase; test: Inhibition of Thymidine phosphorylase from Escherichia coli; no inhibition at 137 uM
Thymidine phosphorylase [5] = target: T1, Thymidine phosphorylase; test: Inhibition of Thymidine phosphorylase from Escherichia coli; no inhibition at 213 uM
Thymidine phosphorylase [6] = target: T1, Thymidine phosphorylase; test: Inhibition of Thymidine phosphorylase from Escherichia coli; no inhibition at 47.2 uM

T1 sequence (P07650 whole entry): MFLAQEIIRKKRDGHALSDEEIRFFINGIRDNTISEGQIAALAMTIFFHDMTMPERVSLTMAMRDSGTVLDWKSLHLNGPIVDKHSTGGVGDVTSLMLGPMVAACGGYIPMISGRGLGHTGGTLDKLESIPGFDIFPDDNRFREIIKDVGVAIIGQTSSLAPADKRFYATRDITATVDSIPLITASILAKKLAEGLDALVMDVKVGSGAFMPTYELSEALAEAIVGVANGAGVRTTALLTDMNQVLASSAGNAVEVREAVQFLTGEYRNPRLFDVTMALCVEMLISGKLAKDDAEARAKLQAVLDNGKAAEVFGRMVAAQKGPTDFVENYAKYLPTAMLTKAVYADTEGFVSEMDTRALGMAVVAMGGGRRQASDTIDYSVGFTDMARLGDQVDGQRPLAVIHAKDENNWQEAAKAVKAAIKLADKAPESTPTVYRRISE

O=c1ncc2cc[nH]c2[nH]1
IC50 (Thymidine phosphorylase [1]): No inhibition

O=c1[nH]cnc2[nH]ccc12
IC50 (Thymidine phosphorylase [2]): No inhibition

Nc1nc[nH]c(=O)c1Br
IC50 (Thymidine phosphorylase [1]): No inhibition

Nc1[nH]c(=O)ncc1Br
IC50 (Thymidine phosphorylase [4]): No inhibition

Nc1ncncc1Br
IC50 (Thymidine phosphorylase [5]): No inhibition

Cl.N=C1CCCN1Cc1nc[nH]c(=O)c1Cl
IC50 (Thymidine phosphorylase [6]): No inhibition
